{"source": "patent US10226472B2", "about": "“Methods for the treatment of breast cancer” (SYNDAX PHARMACEUTICALS, INC., priority 2011, dated 2019)", "key": {"[1]": {"experiment": "Plasma entinostat concentration at acetylation sampling time points", "assay_type": "in vivo, human", "details": "D8 and D15 time points used for acetylation evaluation; generally at or below the assay detection limit"}, "[2]": {"details": "in vivo; cited from earlier work"}, "[3]": {"experiment": "Phase 2 study of exemestane with and without entinostat: safety and tolerability (adverse events)", "assay_type": "in vivo, human", "description": "(§1) Secondary Outcome Measures are to compare objective response rate (ORR) and clinical benefit rate (CBR), and to evaluate the safety and tolerability of entinostat in combination with exemestane as measured by adverse events and laboratory safety parameters.\nSafety was assessed by adverse events (AEs), using the National Cancer Institute Common Terminology Criteria for Adverse Events, version 3.0, electrocardiograms, hematology and serum chemistries, ECOG performance status, and vital signs.\nSafety was assessed by an independent Data Safety Monitoring Board. All participating investigators and patients remain blinded to the assigned study treatment, as post-treatment follow-up for OS is continuing."}, "[4]": {"test_system": "locally recurrent or metastatic estrogen receptor-positive breast cancer", "experiment": "PFS by change in protein lysine acetylation in PBMCs (biomarker subset of the Phase 2 study)", "assay_type": "in vivo, human", "description": "The primary endpoint was progression-free survival (PFS).\nProtein lysine acetylation was measured by multi-parameter flow cytometry in peripheral blood mononuclear cells (PBMCs; CD19+ B cells, CD3+ T cells, and CD14+ monocytes) collected pre and post-treatment on D1, D8, and D15 of C1 to explore the association with PFS.\nThe association of PFS with degree of change in protein lysine acetylation from baseline in PBMCs was evaluated as an exploratory, post-hoc analysis in a subset of patients using the Cox proportional hazard model. Analyses in all 3 cell types (B cells, T cells, monocytes) was performed for consistency of results and to aid in selection of optimal cell type for analysis in future studies.\nBaseline characteristics were consistent with the overall study population (FIG. 17). Hyperacetylation in EE patients was associated with a prolonged median PFS consistent across all cell types tested (FIG. 18): 8.5 versus 2.7 months for low acetylators (HR=0.32, 95% CI 0.13, 0.79) (B cells); 6.6 versus 3.6 months for low acetylators (HR=0.44, 95% CI 0.18, 1.08) (T cells); and 6.2 versus 3.6 months for low acetylators (HR=0.50, 95% CI 0.21, 1.20) (monocytes). […] The percent change in acetylation from baseline was determined based upon the last sample obtained. The degree of change in acetylation was then dichotomized into “high” (i.e., above the median or “hyperacetylators”) and “low” (i.e., below the median) subgroups using a non-model based approach: patients with a change from baseline that was greater than or equal to the 50th percentile (median) of the overall distribution were assigned to the “high” group; patients with a change less than the 50th percentile were assigned to the “low” group. The cut-point for the analysis (50th percentile) was determined a priori, but was not based on findings from earlier studies.\nPercent change is calculated and related to progression free survival (PFS) outcome data. Hyperacetylation independent of treatment arm is defined as a percent change increase above the calculated median percent change for each cell type."}, "[5]": {"test_system": "advanced BC demonstrating PD or recurrence following a NSAI", "details": "reported by Chia, et al; cited from earlier work"}, "[6]": {"test_system": "locally recurrent or metastatic estrogen receptor-positive breast cancer", "experiment": "Phase 2 randomized, double-blind study of exemestane with and without entinostat (ENCORE-301): efficacy", "assay_type": "in vivo, human", "details": "for median progression-free survival (PFS) / overall survival: intent-to-treat population; for overall survival: median follow-up of 18 months", "excerpt": "as §1\nThe primary endpoint of the study was progression-free survival. Other endpoints included objective response rate (ORR), clinical benefit rate (CBR), overall survival (OS) and safety and tolerability. All patients had received prior hormonal therapy (1 prior line 42%; >1 prior line 58%), and 33% had received prior chemotherapy in the advanced breast cancer setting.\nOne hundred thirty (130) patients were enrolled between June 2008 and July 2010 at 38 sites in North America, Central Europe, and Russia. All patients provided written informed consent. […] Randomization was stratified by 1) prior NSAI treatment setting (adjuvant/metastatic); 2) metastases in bone only (yes/no); and 3) geographic region (North America/Central Europe and Russia). The randomization schedule was prepared and maintained by an independent statistical service provider. The protocol allowed for enrollment of approximately 20% of patients with non-measurable disease.\nPostmenopausal women with ER+BC currently experiencing disease relapse or progression while receiving a NSAI were eligible. Patients either had 1) relapsed after adjuvant NSAI treatment administered for at least 12 months or 2) progressed after NSAI treatment administered for at least 3 months in the metastatic/advanced setting. One prior line of chemotherapy in the metastatic setting was permitted if given before the most recent NSAI. Within 4 weeks prior to starting study treatment, patients must have had at least 1 measurable lesion (≥20 mm by conventional techniques or ≥10 mm by spiral computed tomography [CT] scan), or with bone only metastases, a positive bone scan confirmed by magnetic resonance imaging (MRI) or positron emission tomography (PET)-CT. Additional requirements included, an Eastern Cooperative Oncology Group (ECOG) performance status of 0 or 1; adequate hematologic parameters; and creatinine, aspartate transaminase, and alanine transaminase <2.5 times the upper limit of normal. Patients with prior fulvestrant, exemestane, entinostat, or any other HDACi were excluded.\nTreatment cycles were 28 days in length. Patients were evaluated on Day (D) 1, D8, and D15 during Cycle (C) 1 and on D1 of all subsequent cycles. Peripheral blood samples were taken in a subset of patients pre- and post-dosing on D1, 8, or 15 of C1. Patient/disease response assessments were performed on D22 of C2 and every other cycle thereafter. After completing study treatment, patients entered into post-treatment follow-up for evaluation of overall survival and subsequent therapies. Patients were to be followed until death, withdrawal of consent, or study closure by the sponsor.\nDisease was evaluated using the Response Evaluation Criteria in Solid Tumors (RECIST), version 1.0. Contrast-enhanced CT scans were obtained at baseline, every other cycle for 12 months, and every third cycle thereafter. PD also was assessed by bone scan and clinical symptoms, as appropriate.\nThe primary endpoint was PFS, defined as the number of months from randomization to documented PD or death due to any cause. Secondary endpoints included overall response (OR; complete response [CR]+partial response [PR]) and clinical benefit rates (CBR; OR+stable disease [SD] for ≥6 months). Overall Survival (OS) was an exploratory endpoint.\nPFS was summarized descriptively using the Kaplan-Meier method and reported based on 116 progression events as of March 2012. The HR was estimated from a stratified Cox proportional hazards model, with placebo serving as the reference in the calculation. The primary inferential comparison between groups was made using the log-rank test, stratified by the 3 randomization factors. For patients who died before documentation of PD, death date was used as the PD date. […]"}, "[7]": {"details": "listed as exemestane plus placebo"}}, "note": "“And” between values parts separate entries of the source, which are not always exact repeats. Equal entries are not always repeated.", "data": [{"smiles": "Nc1ccccc1NC(=O)c1ccc(CNC(=O)OCc2cccnc2)cc1", "note": "[entinostat, N-(2-aminophenyl)-4-[N-(pyridine-3-yl)methoxycarbonylamino-methyl]-benzamide]", "values": [{"measurement": "plasma entinostat concentration", "setting": "[1]", "result": "< 0.5", "unit": "ng/mL"}, {"measurement": "half-life", "setting": "[2]", "result": "about 100 hours"}, {"measurement": "neutropenia cases attributed to entinostat", "setting": "[3]; EE group, 13 of 19 cases", "result": 68, "unit": "%"}, {"measurement": "tolerability / safety profile", "setting": "[3]; Phase 2 clinical trial", "result": "acceptable safety profile"}]}, {"smiles": "C=C1C[C@@H]2[C@H](CC[C@]3(C)C(=O)CC[C@@H]23)[C@@]2(C)C=CC(=O)C=C12", "note": "[EP, exemestane]", "values": [{"measurement": "median PFS, high acetylators (hyperacetylation)", "setting": "[4]; B cells", "result": "1.9 months and 1.92 months"}, {"measurement": "median PFS, low acetylators", "setting": "[4]; B cells", "result": 1.8, "unit": "months"}, {"measurement": "median PFS, high acetylators (hyperacetylation)", "setting": "[4]; T cells", "result": 1.77, "unit": "months"}, {"measurement": "median PFS, high acetylators (hyperacetylation)", "setting": "[4]; monocytes", "result": 1.87, "unit": "months"}, {"measurement": "median PFS", "setting": "[5]", "result": 3.7, "unit": "months"}, {"measurement": "serious AE rate", "setting": "[3]; Example 1a", "result": 12, "unit": "%"}, {"measurement": "incidence of serious AEs", "setting": "[3]; Example 1c, Safety Population", "result": 12, "unit": "%"}, {"measurement": "AEs leading to dose modification", "setting": "[3]; Safety Population", "result": 6, "unit": "%"}, {"measurement": "AEs leading to study discontinuation", "setting": "[3]; Safety Population", "result": 2, "unit": "%"}, {"measurement": "G4 AEs", "setting": "[3]; Safety Population", "result": 3, "unit": "%"}, {"measurement": "Grade (G) 3 AEs", "setting": "[3]; Safety Population", "result": 23, "unit": "%"}, {"measurement": "rate of AEs", "setting": "[3]; Safety Population, irrespective of study drug relationship", "result": 85, "unit": "%"}, {"measurement": "median overall survival", "setting": "[6]; 23-month follow-up", "result": 19.8, "unit": "months"}, {"measurement": "incidence of death", "setting": "[6]; Example 1c analysis", "result": 65, "unit": "%"}, {"measurement": "median OS", "setting": "[6]; Example 1c analysis, ITT population", "result": 19.8, "unit": "months"}, {"measurement": "clinical benefit rate (CBR; OR+SD for >=6 months)", "setting": "[6]; ITT population", "result": 25.8, "unit": "%"}, {"measurement": "overall response (OR; CR+PR)", "setting": "[6]; ITT population, RECIST 1.0", "result": 4.6, "unit": "%"}, {"measurement": "median progression-free survival (PFS)", "setting": "[6]", "result": "2.3 months and 2.27 months"}, {"measurement": "median progression-free survival (PFS)", "setting": "[6]; listed as exemestane alone", "result": 2.3, "unit": "months"}, {"measurement": "median progression-free survival (PFS)", "setting": "[6]; [7]", "result": "2.27 months and 2.3 months"}, {"measurement": "median progression-free survival (PFS)", "setting": "[6]; listed as exemestane+placebo", "result": 2.3, "unit": "months"}, {"measurement": "overall survival", "setting": "[6]", "result": 20.3, "unit": "months"}, {"measurement": "overall survival", "setting": "[6]; [7]", "result": 20.33, "unit": "months"}]}]}
